# Results taken from patent US20240075123A1, “TREATMENT OF CANCERS AND INFECTIOUS DISEASES WITH KILLED INTACT BACTERIA” (priority 2022, published 2024).
# Columns and labels:
# hepatitis B virus (HBV) [1] = assay: AAV-HBV mouse model of chronic HBV infection, second study; format: in vivo
# Procedure: (§1) The anti-hepatitis B virus (HBV) efficacy of Decoy was evaluated in two studies. A standard pre-clinical model was used in which the human HBV genome is inserted in an adeno-associated virus (AAV). This hybrid construct is able to infect mouse hepatocytes, producing a chronic HBV-like infection with many of the hallmarks of human HBV infection, including high levels of HBV replication in liver and blood and production of HBe and HBs antigen (HBeAg and HBsAg). AAV-HBV virus is administered to mice and then blood titers of HBV DNA are monitored. Significant and relatively stable blood levels of HBV appear within 28-31 days, at which point treatment is initiated. Indomethacin was administered with Decoy in many groups in the first study, but not in the second study.
# A group of untreated animals was included in the study. All treatment was well tolerated in AAV-HB V-infected mice.
# No inhibition of other infection hallmarks was observed by mIFN-alpha.
# hepatitis B virus (HBV) [2] = assay: AAV-HBV mouse model of chronic HBV infection, first study; format: in vivo; conditions: for HBV replication (measured in blood): 5 weeks of dosing
# Procedure: as §1
# In the first study, Decoy (two different doses) was tested in combination with indomethacin and also in combination with the clinical standard of care, Entecavir (ETV). ETV and indomethacin were also tested as single agents (first study). […] In addition, ETV and mIFN-alpha were tested as single agents and in combination with Decoy (one dose).
# Decoy-induced body weight loss was mild, transient (6% for […] in first week of treatment) and tapered off after the first week of treatment (tolerance phenomenon) (FIG. 28).
# [3] = tested on: CT26.WT colorectal carcinoma; assay: s.c. CT26.WT, Decoy (DB104) with cyclophosphamide (CTX); format: in vivo, mouse; conditions: vs untreated mice; Decoy single agent all doses (p<0.05); CTX both schedules
# Procedure: Mouse CT26.WT colorectal carcinoma cells were implanted (injected) into the right flank of BALB/c mice. Animals were randomized and treatments were initiated (Starting Day=SD) with a mean group tumor weight of 75 to 79 mg. […] A group of animals that received no treatment was used as the control.
# CT26 tumors = assay: s.c. established CT26 tumors, Decoy with LDC; format: in vivo, mouse; conditions: Decoy alone 6.0×10^8; LDC 20 mg/kg i.p.; combination 3×10^8 Decoy + LDC
# Source text: LDC alone produced a 57% ILS, which was statistically significant.
# [4] = tested on: A20 non-Hodgkin's lymphoma; assay: s.c. A20 lymphoma, repeat and immune cell depletion; format: in vivo, mouse; conditions: 212 mm^3 tumors; two weeks of treatment
# Procedure: A group of untreated animals was used as the control. Treatment was started when the average tumor size was 212 mm^3. […] Combination with LDC produced 12% transient weight loss in the first week and 13.6% transient weight loss in the second week.
# Tumor implantation was carried out during the depletion regimen. […] Extra mice in each group were sacrificed at the time of initiation of treatment in order to verify immune cell depletion. […] The positive control included 2 groups of 6 mice each (one group received indomethacin), with 10/12 CRs/regressions (6/6 regressions without indomethacin and 4/6 regressions with added indomethacin). […] Thus, in addition to immune activation associated with innate and adaptive immune cells, LPS provides a key bridging activity between the innate and adaptive immune systems.
# [5] = tested on: A20 non-Hodgkin's lymphoma; assay: s.c. A20 lymphoma, Decoy dose and regimen with LDC; format: in vivo, mouse; conditions: LDC alone
# Procedure: A group of untreated animals was used as the control. LDC alone was also tested. Treatment was initiated on Day 13 when the average tumor size was 158 mm^3.
# [6] = tested on: H22 hepatocellular carcinoma; conditions: mouse, in vivo
# Procedure: Indomethacin was tested at 10 μg/mL in drinking water, p.o. ad libitum daily for either 4 or 7 weeks. […] Treatment was started when the average tumor size was 123 mm^3.
# [7] = tested on: Pan02 pancreatic carcinoma; assay: Intrasplenic Pan02 pancreatic carcinoma, first experiment; format: in vivo; conditions: Decoy 5×10^7 and 2×10^8 per mouse; gemcitabine 50 mg/kg i.p.
# Source text: Pancreatic tumor cells were surgically implanted (injected) into the spleen of C57BL/6 female mice on Day 0. […] A group of untreated animals was used as the control. All untreated animals developed large tumors in the spleen, liver and pancreas, requiring termination around Day 30.
# [8] = tested on: Pan02 pancreatic carcinoma; assay: Intrasplenic Pan02 pancreatic carcinoma, second experiment; format: in vivo, mouse; conditions: single agents
# Source text: A group of animals administered Decoy vehicle was used as the control.
# H22 tumors = assay: s.c. H22 HCC, plasma cytokine/chemokine induction and one-week treatment; format: in vivo, mouse
# Procedure: Female BALB/c mice with ˜200 mm^3 H22 tumors were randomized on Day-0 into 8 groups, each containing 3 sub-groups. All of the possible treatment approaches or combinations, including no treatment, were carried out. Mice from each of two subgroups from each group (5 mice per sub-group) were sacrificed 6 and 24 hours after no treatment, single, 2-way, or 3-way combination treatment. In the case of 2way and 3-way combination treatment, mice were sacrificed 6 and 24 hours after the first treatment instance of the second or third component of the combination. Plasma was prepared from each mouse and 32-plex ELISA-based cytokine/chemokine analysis was carried out. A third sub-group from each group (6 mice each) was treated for one week, with tumor volumes measured at randomization, once during the week and at the end of one week of treatment. Mice were sacrificed, then tumors were harvested and RNA was isolated. The 48 RNA samples were analyzed for expression of 770 genes involved in immune response pathways, using NanoString technology.
# Indomethacin induced expression of only 2/32 cytokines/chemokines, and only at 6 hours after initiation of treatment. […] There was no increase in weight loss in any of the combination groups, relative to single agent treatment. […]
# [9] = tested on: H22 hepatocellular carcinoma; assay: s.c. H22 hepatocellular carcinoma, first study (194 mm^3); format: in vivo; conditions: single agents; Decoy QD×2 weekly 6 weeks
# Procedure: Treatment was initiated when the average tumor size was 194 mm^3. […] Indomethacin was administered at 10 μg/mL, p.o., ad libitum daily in drinking water×6 weeks (alone and in combinations) and anti-PD-1 was administered at 10 mg/kg, i.p., BIW×2 weeks (alone and in combinations). A group of animals that received no treatment was used as the control in the study.
# HIV-1 = assay: Chronic HIV humanized hu-mouse model; format: in vivo; conditions: 5 weeks of treatment
# Ramos NHL xenograft = assay: s.c. human Ramos NHL xenograft in CB17/SCID mice; design: species or system mouse; conditions: in vivo
# Procedure: This was tested with the human Ramos NHL xenograft model in SCID mice, which lack B and T cells.
# Maximum transient weight loss for all non-indomethacin groups was generally in the 5% to 10% range. […] However, cure of at least some percentage of the mice is possible with the 3-way combination as a repeat produced 2/4 durable regressions in mice.
# The 5 tumor-regressed mice were re-challenged with fresh Ramos tumor cells (opposite flank from first challenge) on Day 74. Only 2/5 tumors grew out, compared to 5/5 with naïve mice challenged with the same fresh tumor cells (FIG. 26). […] This has been reported previously with a small number of other agents, and is considered to be very difficult to achieve. Tumor regression with immunological memory via the innate immune system alone is very rare in preclinical models, but consistent with a multiple TLR agonist mechanism.
# [10] = tested on: H22 hepatocellular carcinoma; assay: s.c. H22 hepatocellular carcinoma, second study (E0776-U1802); format: in vivo
# Procedure: Indomethacin was tested at 10 μg/mL in drinking water, p.o. ad libitum daily for either 2 or 6 weeks. Anti-PD-1 was tested at 10 mg/kg, i.p. 2× per week for 2 weeks. Dosing was started when the average tumor size was 184 mm^3. A group of untreated animals was used as the control.
# human PBMCs = assay: Cytokine secretion by human PBMCs in vitro; format: cell-based; conditions: 48 hr, full titration peak/mean of triplicates; Study AB64785
# Procedure: TLR ligands such as E. coli LPS, ds E. coli DNA, E. coli peptidoglycan (PGN), Flagellin, R848, Polyinosinic-polycytidylic acid (poly I:C), and CpG oligonucleotide (ODN) were also assessed in these studies. Initial experiments were carried out with incubation for 24, 48 and 72 hours, as well as with and without immune cell activation with anti-CD3. […] In addition, maximal induction of secretion of most cytokines and chemokines occurred after 48 hours. […] Essentially all cytokines and chemokines participate in activation of innate and/or adaptive (including anti-tumor and anti-viral) immune pathways, but can also induce significant toxicity if expressed in the wrong place, at the wrong time, for too long, or at an inappropriately high level.
# healthy human volunteers = conditions: purified LPS, over 1,000 healthy human volunteers; cited from earlier work
molecule,measurement,setting,value
"C=C1[C@H](CO)[C@@H](O)C[C@@H]1n1cnc2c(=O)[nH]c(N)nc21 [ETV, Entecavir]",plasma HBV DNA levels,"hepatitis B virus (HBV) [1]; Day 31 to Day 151, no indomethacin",reduced plasma HBV DNA levels
same,HBV DNA and HBeAg levels in mouse liver at termination,"hepatitis B virus (HBV) [1]; mouse, in vivo",not
same,plasma HBsAg and HBeAg levels,"hepatitis B virus (HBV) [1]; mouse, in vivo",not
same,HBV replication (measured in blood),hepatitis B virus (HBV) [2],significantly inhibited HBV replication
same,HBeAg and HBsAg in blood,"hepatitis B virus (HBV) [2]; mouse, in vivo",not to reduce or inhibit production of HBeAg or HBsAg
same,inhibition of HBcAg in the liver,"hepatitis B virus (HBV) [2]; mouse, in vivo",not
same,reduction of HBV in the liver,"hepatitis B virus (HBV) [2]; mouse, in vivo",not
"O=P1(N(CCCl)CCCl)NCCCO1 (stereo not drawn) [LDC, cyclophosphamide]",inhibition of tumor growth,[3],significant tumor growth inhibition
same,increased lifespan (% ILS),CT26 tumors,57%
same,regressions,[4],without producing any regressions
same,tumor regression (group of 4),[5],one
same,single agent anti-tumor activity,[6],"weak, but statistically significant"
Nc1ccn([C@@H]2O[C@H](CO)[C@@H](O)C2(F)F)c(=O)n1 [gemcitabine],median survival time,[7],significant increase in median survival
same,survival,[8],increased survival
same,single agent anti-tumor activity,[6],"weak, but statistically significant"
same,weight loss,[6],20%
COc1ccc2c(c1)c(CC(=O)O)c(C)n2C(=O)c1ccc(Cl)cc1 [indomethacin],plasma cytokines/chemokines induced (of 32),H22 tumors; 6 or 24 hours after treatment,2/32
same,Tumor growth inhibition relative to no treatment,H22 tumors; after one week of treatment,17%
same,increase in life-span (% ILS),[9],30%
same,HIV viral load in plasma,HIV-1,inhibited HIV viral load
same,survival,[8],did not increase survival significantly
same,Transient weight loss,[6],not seen
same,HBV replication (measured in blood),hepatitis B virus (HBV) [2],did not inhibit HBV replication
same,single agent anti-tumor activity,Ramos NHL xenograft,did not produce single agent activity
same,regressions,[10]; 6 week indomethacin treatment,did not see any regressions
same,regressions (6 animals per group),"[10]; indomethacin 2 weeks, indomethacin 2 weeks+anti-PD-1, Decoy QD×2 6 weeks+indomethacin 6 weeks",one
same,lifespan (ILS),"[10]; single agents, indomethacin 2 weeks and 6 weeks",statistically significant increase in lifespan
Polyinosinic-polycytidylic acid [Poly(I:C)],GM-CSF secretion by human PBMCs,human PBMCs,0 pg/mL
same,IFNγ secretion by human PBMCs,human PBMCs,103 pg/mL
same,IL-1β secretion by human PBMCs,human PBMCs,22 pg/mL
same,IL-6 secretion by human PBMCs,human PBMCs,129 pg/mL
same,IL-8 secretion by human PBMCs,human PBMCs,"1,452 pg/mL"
same,IL-10 secretion by human PBMCs,human PBMCs,8 pg/mL
same,IL-12p70 secretion by human PBMCs,human PBMCs,18 pg/mL
same,TNFα secretion by human PBMCs,human PBMCs,208 pg/mL
lipopolysaccharide [LPS],GM-CSF secretion by human PBMCs,human PBMCs,175 pg/mL
same,IFNγ secretion by human PBMCs,human PBMCs,"29,416 pg/mL"
same,IL-1β secretion by human PBMCs,human PBMCs,"4,631 pg/mL"
same,IL-6 secretion by human PBMCs,human PBMCs,"54,174 pg/mL"
same,IL-8 secretion by human PBMCs,human PBMCs,"143,459 pg/mL"
same,IL-10 secretion by human PBMCs,human PBMCs,"3,542 pg/mL"
same,IL-12p70 secretion by human PBMCs,human PBMCs,109 pg/mL
same,TNFα secretion by human PBMCs,human PBMCs,"24,944 pg/mL"
same,highest dose determined to be well-tolerated after IV administration,healthy human volunteers,0.004 µg/kg
rituximab,single agent anti-tumor activity,Ramos NHL xenograft,inhibited or delayed
